Data set [1] in a line: Protein binding in rat plasma assessed as fraction unbound. The class given is ADME, cell-free.
Data set [2] has as its target Metabotropic glutamate receptor 7 (Homo sapiens, UniProt Q14831). Nature of the data set: Positive allosteric modulation of human mGluR7 in presence of EC20 concentration of L-AP4 by calcium mobilization assay. The data set is classed as functional. Background: Calcium flux is commonly read through the fluorescence of an indicator in the cells.
The target in data set [3] is Metabotropic glutamate receptor 1 (Homo sapiens, UniProt Q13255). Nature of the data set: Positive allosteric modulation of human mGluR1 in presence of EC20 concentration of glutamate by calcium mobilization assay. The class given is functional.
Metabotropic glutamate receptor 1, sequence (Q13255 whole entry): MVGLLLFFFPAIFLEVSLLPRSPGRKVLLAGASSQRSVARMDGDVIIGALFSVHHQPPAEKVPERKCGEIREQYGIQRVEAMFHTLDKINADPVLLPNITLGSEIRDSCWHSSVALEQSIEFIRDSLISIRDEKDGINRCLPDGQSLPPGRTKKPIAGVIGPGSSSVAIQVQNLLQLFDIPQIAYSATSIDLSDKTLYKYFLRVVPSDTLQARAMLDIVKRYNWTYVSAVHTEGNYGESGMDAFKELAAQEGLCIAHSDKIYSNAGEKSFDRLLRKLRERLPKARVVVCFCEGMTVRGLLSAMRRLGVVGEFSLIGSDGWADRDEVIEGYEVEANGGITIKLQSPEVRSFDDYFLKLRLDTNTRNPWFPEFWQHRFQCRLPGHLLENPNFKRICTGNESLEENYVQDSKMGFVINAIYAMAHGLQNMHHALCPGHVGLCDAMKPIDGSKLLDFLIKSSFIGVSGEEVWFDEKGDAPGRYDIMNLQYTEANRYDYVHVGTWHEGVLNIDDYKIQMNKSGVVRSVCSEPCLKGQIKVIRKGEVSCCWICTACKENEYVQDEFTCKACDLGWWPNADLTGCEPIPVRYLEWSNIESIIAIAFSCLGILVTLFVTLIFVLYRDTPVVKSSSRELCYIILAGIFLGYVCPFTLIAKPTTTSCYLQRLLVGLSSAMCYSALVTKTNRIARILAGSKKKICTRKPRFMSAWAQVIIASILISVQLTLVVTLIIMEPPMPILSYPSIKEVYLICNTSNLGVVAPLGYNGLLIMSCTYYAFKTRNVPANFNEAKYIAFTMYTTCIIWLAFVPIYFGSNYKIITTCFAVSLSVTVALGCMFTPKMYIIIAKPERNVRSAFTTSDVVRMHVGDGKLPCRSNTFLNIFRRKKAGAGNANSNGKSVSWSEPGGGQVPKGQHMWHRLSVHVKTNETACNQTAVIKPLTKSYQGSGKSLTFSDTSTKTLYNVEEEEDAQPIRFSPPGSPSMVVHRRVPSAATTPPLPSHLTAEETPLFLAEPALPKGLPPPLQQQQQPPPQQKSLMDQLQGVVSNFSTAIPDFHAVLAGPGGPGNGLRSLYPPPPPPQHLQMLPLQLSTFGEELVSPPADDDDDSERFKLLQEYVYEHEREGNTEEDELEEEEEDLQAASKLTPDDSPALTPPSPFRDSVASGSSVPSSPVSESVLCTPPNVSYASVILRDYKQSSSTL
In data set [4] the target is Metabotropic glutamate receptor 4 (Homo sapiens, UniProt Q14833). In words: Positive allosteric modulation of human mGluR4 by calcium mobilization assay. The class given is functional.
Metabotropic glutamate receptor 4, sequence (Q14833 whole entry): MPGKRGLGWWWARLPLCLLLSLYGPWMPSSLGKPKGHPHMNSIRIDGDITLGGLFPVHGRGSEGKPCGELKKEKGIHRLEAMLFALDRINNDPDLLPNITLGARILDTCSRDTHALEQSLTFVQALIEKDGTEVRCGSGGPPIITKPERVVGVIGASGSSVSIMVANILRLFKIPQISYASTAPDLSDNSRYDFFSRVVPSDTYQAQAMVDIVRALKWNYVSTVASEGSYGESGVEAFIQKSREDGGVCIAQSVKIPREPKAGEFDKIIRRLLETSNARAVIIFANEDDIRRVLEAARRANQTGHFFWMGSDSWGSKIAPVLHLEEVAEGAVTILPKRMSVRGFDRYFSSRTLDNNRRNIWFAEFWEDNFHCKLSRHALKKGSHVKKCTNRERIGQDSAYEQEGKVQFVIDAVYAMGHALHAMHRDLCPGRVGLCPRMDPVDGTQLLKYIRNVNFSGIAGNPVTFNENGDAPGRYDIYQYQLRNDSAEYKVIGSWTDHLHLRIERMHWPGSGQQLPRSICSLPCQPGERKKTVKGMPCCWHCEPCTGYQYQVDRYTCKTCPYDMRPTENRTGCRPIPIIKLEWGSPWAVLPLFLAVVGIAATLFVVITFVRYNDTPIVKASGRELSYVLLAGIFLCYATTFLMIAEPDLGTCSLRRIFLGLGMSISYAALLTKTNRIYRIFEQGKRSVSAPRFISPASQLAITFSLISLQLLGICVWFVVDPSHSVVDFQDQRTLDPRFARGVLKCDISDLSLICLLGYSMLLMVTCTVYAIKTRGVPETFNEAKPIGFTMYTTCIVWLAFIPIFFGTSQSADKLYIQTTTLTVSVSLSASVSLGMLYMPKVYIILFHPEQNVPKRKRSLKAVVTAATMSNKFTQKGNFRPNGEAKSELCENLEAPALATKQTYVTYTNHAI
Data set [5] addresses Metabotropic glutamate receptor 2 (Homo sapiens, UniProt Q14416). In words: Positive allosteric modulation of mGluR2 (unknown origin) by calcium mobilization assay. The class given is functional.
Data set [6] concerns the target Metabotropic glutamate receptor 6 (Homo sapiens, UniProt O15303). Nature of the data set: Positive allosteric modulation of mGluR6 (unknown origin) by calcium mobilization assay. The class given is functional.
For data set [7], the target named is Metabotropic glutamate receptor 3 (Homo sapiens, UniProt Q14832). In words: Positive allosteric modulation of mGluR3 (unknown origin) by calcium mobilization assay. The class given is functional.
For data set [8], the target named is Metabotropic glutamate receptor 8 (Homo sapiens, UniProt O00222). In words: Positive allosteric modulation of mGluR8 (unknown origin) by calcium mobilization assay. The class given is functional.
Data set [9] addresses Metabotropic glutamate receptor 5 (Homo sapiens, UniProt P41594). In words: Positive allosteric modulation of mGluR5 (unknown origin) by calcium mobilization assay. The class given is functional.

Structures are written as SMILES.

Metabotropic glutamate receptor 7, sequence (Q14831 whole entry): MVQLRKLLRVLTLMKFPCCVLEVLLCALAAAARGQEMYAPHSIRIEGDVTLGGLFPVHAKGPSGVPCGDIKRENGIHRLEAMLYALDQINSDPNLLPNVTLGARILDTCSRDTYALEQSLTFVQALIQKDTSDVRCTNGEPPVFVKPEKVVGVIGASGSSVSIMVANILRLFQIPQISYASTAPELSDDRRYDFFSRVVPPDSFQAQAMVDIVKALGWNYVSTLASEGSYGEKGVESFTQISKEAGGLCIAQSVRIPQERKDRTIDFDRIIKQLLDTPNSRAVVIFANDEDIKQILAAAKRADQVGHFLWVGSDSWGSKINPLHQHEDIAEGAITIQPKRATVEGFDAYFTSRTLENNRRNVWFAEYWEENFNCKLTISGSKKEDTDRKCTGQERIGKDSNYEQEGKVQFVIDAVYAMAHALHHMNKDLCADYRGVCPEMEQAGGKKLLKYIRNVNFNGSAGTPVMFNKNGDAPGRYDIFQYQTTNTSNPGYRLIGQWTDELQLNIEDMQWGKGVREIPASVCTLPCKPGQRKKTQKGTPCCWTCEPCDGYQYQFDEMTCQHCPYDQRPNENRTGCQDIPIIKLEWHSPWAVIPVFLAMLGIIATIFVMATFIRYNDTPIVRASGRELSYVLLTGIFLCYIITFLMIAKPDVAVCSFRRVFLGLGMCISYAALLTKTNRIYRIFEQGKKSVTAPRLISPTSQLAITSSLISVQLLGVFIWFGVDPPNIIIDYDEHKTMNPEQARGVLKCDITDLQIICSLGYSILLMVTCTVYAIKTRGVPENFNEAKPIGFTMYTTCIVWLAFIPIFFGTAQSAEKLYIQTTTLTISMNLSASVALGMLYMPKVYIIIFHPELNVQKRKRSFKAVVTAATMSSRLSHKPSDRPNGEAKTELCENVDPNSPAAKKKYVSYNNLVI
Metabotropic glutamate receptor 6, sequence (O15303 whole entry): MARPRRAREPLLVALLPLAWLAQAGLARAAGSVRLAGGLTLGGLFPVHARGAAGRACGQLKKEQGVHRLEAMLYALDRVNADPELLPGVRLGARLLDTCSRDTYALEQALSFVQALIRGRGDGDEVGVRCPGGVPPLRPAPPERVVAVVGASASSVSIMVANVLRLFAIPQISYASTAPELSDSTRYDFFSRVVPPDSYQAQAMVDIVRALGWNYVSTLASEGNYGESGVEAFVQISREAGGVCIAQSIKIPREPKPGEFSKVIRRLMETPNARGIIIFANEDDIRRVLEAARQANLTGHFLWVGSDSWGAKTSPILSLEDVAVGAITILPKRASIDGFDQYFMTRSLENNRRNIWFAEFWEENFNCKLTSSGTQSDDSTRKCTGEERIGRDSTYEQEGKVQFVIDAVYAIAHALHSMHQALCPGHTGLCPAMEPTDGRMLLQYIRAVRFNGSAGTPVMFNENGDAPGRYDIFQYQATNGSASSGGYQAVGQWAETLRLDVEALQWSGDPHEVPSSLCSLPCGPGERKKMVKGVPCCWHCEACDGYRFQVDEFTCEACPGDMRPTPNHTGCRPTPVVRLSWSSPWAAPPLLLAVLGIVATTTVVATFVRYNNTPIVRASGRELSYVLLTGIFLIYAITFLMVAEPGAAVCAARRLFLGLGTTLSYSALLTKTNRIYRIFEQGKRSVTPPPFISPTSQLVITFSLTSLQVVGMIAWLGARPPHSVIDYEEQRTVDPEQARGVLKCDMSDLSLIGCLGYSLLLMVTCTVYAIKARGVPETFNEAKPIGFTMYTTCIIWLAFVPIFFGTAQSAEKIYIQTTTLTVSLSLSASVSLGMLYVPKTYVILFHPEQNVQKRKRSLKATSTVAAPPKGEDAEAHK
Metabotropic glutamate receptor 5, sequence (P41594 whole entry): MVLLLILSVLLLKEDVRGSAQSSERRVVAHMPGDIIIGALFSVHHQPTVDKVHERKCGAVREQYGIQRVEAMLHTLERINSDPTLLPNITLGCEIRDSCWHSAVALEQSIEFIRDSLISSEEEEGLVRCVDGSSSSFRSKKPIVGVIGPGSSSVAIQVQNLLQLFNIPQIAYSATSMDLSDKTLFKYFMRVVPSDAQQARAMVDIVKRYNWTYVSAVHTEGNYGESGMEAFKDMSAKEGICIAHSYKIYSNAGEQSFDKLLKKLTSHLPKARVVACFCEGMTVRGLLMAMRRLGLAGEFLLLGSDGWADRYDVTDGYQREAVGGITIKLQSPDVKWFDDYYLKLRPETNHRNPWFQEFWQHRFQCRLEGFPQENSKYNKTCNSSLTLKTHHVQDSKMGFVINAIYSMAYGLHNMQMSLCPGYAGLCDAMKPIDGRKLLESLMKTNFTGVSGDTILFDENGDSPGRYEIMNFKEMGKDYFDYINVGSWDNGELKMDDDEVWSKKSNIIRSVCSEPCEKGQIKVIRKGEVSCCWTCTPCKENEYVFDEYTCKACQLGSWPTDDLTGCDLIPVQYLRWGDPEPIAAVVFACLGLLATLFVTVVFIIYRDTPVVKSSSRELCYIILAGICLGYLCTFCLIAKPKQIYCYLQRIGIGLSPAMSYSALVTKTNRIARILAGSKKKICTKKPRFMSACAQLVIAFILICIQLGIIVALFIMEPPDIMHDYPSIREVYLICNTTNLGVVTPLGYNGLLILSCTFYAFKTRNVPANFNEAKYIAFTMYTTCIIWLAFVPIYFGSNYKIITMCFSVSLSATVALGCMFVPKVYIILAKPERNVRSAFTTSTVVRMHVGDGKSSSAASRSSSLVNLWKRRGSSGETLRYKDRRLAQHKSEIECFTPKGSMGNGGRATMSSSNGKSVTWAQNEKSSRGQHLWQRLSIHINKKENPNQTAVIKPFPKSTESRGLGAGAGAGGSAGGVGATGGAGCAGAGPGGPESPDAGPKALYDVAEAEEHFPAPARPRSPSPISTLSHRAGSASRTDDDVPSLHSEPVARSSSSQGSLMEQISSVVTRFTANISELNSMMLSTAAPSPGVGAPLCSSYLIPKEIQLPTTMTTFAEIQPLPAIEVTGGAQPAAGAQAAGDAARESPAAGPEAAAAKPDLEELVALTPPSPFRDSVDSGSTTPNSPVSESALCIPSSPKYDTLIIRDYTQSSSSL

The term fraction unbound denotes the share of the substance not bound to proteins or other matrix. For orientation: EC50 means the concentration needed to bring the measured effect to its halfway point. For the compound `Cc1cc(N2C(=O)C3=C(CCCC3)C2=O)c(F)cc1NC(=O)c1occc1C`, the fraction unbound in data set [1] turned out to be 0.012. Besides, the EC50 in [2] came out at 0.372 µM; in [3] it was 0.058 µM; in data set [4], 0.266 µM.

Regarding `Cc1ccoc1C(=O)Nc1c(F)cc(N2C(=O)C3=C(CCCC3)C2=O)c(F)c1F`, the EC50 in data set [3] was above 10 µM.

`Cc1ccoc1C(=O)Nc1cc(F)c(N2C(=O)c3ccccc3C2=O)c(F)c1`: in data set [3], the EC50 was above 10 µM.

Consider `Cc1ccc2c(c1)C(=O)N(c1ccc(NC(=O)c3occc3C)c(F)c1)C2=O`, for which the EC50 was above 30 µM in data set [5]; above 30 µM in [2]; 0.022 µM in data set [3]; above 30 µM in data set [4]; above 30 µM in data set [6]; above 30 µM in data set [7]. Besides, the EC50 in data set [8] and in data set [9] was above 30 µM each time.

As for `O=C(Nc1ccc(N2C(=O)C3C(C2=O)[C@H]2C=C[C@@H]3C2)cc1)c1ccccn1` (some centres not stated), the EC50 in [3] is above 30 µM.

As to `Cc1nc(C(=O)Nc2cc(F)c(N3C(=O)C4=C(CCCC4)C3=O)cc2C)cs1`, the values for the EC50 in data set [2], in data set [3] and in data set [4] were 1.34 µM, above 10 µM and 0.175 µM, respectively.

Take `Cc1cc(N2C(=O)C3=C(CCCC3)C2=O)c(F)cc1NC(=O)c1ccco1`: the EC50 in data set [2] is 0.377 µM; in data set [3], above 10 µM; in data set [4] it was 0.089 µM.

In the case of `Cc1ccoc1C(=O)Nc1ccc(N2C(=O)c3ccccc3C2=O)c(C#N)c1`, the EC50 in data set [3] is above 10 µM.

For the compound `Cc1cc(NC(=O)c2occc2C)c(F)cc1N1C(=O)c2ccccc2C1=O`, in data set [1], the fraction unbound was 0.012.

In the case of `Cc1ccoc1C(=O)Nc1c(F)cc(N2C(=O)c3ccc(F)cc3C2=O)c(F)c1F`, the EC50 in data set [3] is above 10 µM.

For `Cc1ccoc1C(=O)Nc1c(F)cc(N2C(=O)[C@H]3CC=CC[C@H]3C2=O)c(F)c1F`, in data set [3], the EC50 was above 10 µM.

Take `Cc1ccoc1C(=O)Nc1c(F)cc(N2C(=O)c3cccc(F)c3C2=O)c(F)c1F`: the EC50 in [3] is above 10 µM.

For the compound `Cc1ccoc1C(=O)Nc1c(F)cc(N2C(=O)c3ccc(Cl)cc3C2=O)c(F)c1F`, the EC50 in data set [3] is above 10 µM.

`Cc1ccoc1C(=O)Nc1cc(F)c(N2C(=O)c3cccc(Cl)c3C2=O)c(F)c1F`: in data set [1], the fraction unbound stood at 0.012.

For `Cc1ccoc1C(=O)Nc1c(F)cc(N2C(=O)c3ccccc3C2=O)cc1F`, the EC50 in data set [3] was above 10 µM.

On to `Cc1cc(N2C(=O)C3=C(CCCC3)C2=O)c(F)cc1NC(=O)c1ccc(Cl)o1`, for which the figures for the EC50 in data set [2], in data set [3] and in data set [4] were 0.4 µM, above 10 µM and 0.229 µM, respectively.
